Laboratory results as given in patent US20080009418A1, “Selective Inhibitors” (Alchemia LTD., priority 2004, published 2008).

How the values were obtained:
[1] = target: T1, Human κ-Opioid (KOP) (Homo sapiens, UniProt P41145); experiment: Radioligand binding, human κ-opioid (KOP) membranes, filtration, [3H]-Diprenorphine; details: compound at 10 μM; for A2 radioligand binding inhibition: human κ-opioid (KOP) membranes
T1 construct: purchased Perkin Elmer Biosignal
In short: (§1)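 Filtration binding on cloned human receptor membranes (1 Unit/well), [125I]-Substance P for NK1 and [3H]-Diprenorphine for KOP, 1 h at room temperature. Filters PEI-presoaked, washed with cold 50 mM Tris-HCl pH 7.4, counted by scintillation; percent inhibition calculated, reference ligand defining non-specific binding.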

[2] = target: T2, Human melanocortin (MC5) (Homo sapiens, UniProt P33032); experiment: Radioligand binding, human melanocortin MC5 membranes, FlashPlate, [125I]-NDP-αMSH; details: compound at 10 μM; for A5 radioligand binding inhibition: human melanocortin MC5 membranes
T2 construct: purchased Perkin Elmer Biosignal
In short: (§2)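 Cloned human receptor membranes were coated onto FlashPlate wells and incubated with radioligand and compound (added from a 0.5 mM DMSO daughter plate) for 1 hour at room temperature in the dark. Scintillation counting gave percent inhibition, with DMSO defining total and reference ligand defining non-specific binding.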

[3] = target: T3, Human neurokinin (NK1) (Homo sapiens, UniProt P25103); experiment: Radioligand binding, human neurokinin NK1 membranes, filtration, [125I]-Substance P; details: compound at 10 μM; for A8 radioligand binding inhibition: human neurokinin NK1 membranes
T3 construct: purchased Perkin Elmer Biosignal
In short: as §1

[4] = target: T4, Human δ-opioid (DOP) (Homo sapiens, UniProt P41143); experiment: Radioligand binding, human δ-opioid (DOP) membranes, FlashPlate, [3H]-Bremazocine; details: compound at 10 μM; for A1 radioligand binding inhibition: human δ-opioid (DOP) membranes
T4 construct: purchased Perkin Elmer Biosignal
In short: as §2

[5] = target: T5, Human opioid (ORL1) (Homo sapiens, UniProt P41146); experiment: Radioligand binding, human opioid ORL1 membranes, FlashPlate, [125I]-Nociceptin; details: compound at 10 μM
T5 construct: purchased Perkin Elmer Biosignal
In short: as §2

[6] = target: T6, Human Melanocortin (MC4) (Homo sapiens, UniProt P32245); experiment: Radioligand binding, human melanocortin MC4 membranes, FlashPlate, [125I]-NDP-αMSH; details: compound at 10 μM; for A4 radioligand binding inhibition: human melanocortin MC4 membranes
T6 construct: purchased Perkin Elmer Biosignal
In short: as §2

[7] = target: T7, Human melanin-concentrating hormone (MCH1) (Homo sapiens, UniProt Q99705); experiment: Radioligand binding, human melanin-concentrating hormone MCH1 membranes, FlashPlate, [125I]-S36057; details: compound at 10 μM; for A6 radioligand binding inhibition: human MCH1 membranes
T7 construct: purchased Perkin Elmer Biosignal
In short: as §2

[8] = target: T8, Human neuropeptide Y (NPY-Y1) (Homo sapiens, UniProt P25929); experiment: Radioligand binding, human neuropeptide Y NPY-Y1 membranes, FlashPlate, [125I]-PYY; details: compound at 10 μM
T8 construct: purchased Perkin Elmer Biosignal
T8 sequence (P25929 1-384): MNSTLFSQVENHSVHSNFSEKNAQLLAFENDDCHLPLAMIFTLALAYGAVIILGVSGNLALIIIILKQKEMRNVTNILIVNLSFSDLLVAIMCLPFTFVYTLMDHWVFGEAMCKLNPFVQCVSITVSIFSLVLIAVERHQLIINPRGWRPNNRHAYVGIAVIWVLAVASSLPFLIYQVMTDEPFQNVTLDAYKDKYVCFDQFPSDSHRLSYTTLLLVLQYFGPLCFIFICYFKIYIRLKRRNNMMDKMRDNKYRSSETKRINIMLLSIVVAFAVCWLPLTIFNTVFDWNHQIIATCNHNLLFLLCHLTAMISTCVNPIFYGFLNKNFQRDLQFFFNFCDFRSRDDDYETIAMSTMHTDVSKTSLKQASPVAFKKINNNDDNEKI
In short: as §2

[9] = target: T9, Human Melanocortin (MC3) (Homo sapiens, UniProt P41968); experiment: Radioligand binding, human melanocortin MC3 membranes, FlashPlate, [125I]-NDP-αMSH; details: compound at 10 μM; for A3 radioligand binding inhibition: human melanocortin MC3 membranes
T9 construct: purchased Perkin Elmer Biosignal
In short: as §2

[10] = target: T10, Mouse urotensin (mUR2) (Mus musculus, UniProt Q8VIH9); experiment: Radioligand binding, mouse urotensin mUR2 membranes, FlashPlate, [125I]-Urotensin II; details: compound at 10 μM; for A11 radioligand binding inhibition: mouse urotensin mUR2 membranes
T10 construct: purchased Perkin Elmer Biosignal
T10 sequence (Q8VIH9 1-385): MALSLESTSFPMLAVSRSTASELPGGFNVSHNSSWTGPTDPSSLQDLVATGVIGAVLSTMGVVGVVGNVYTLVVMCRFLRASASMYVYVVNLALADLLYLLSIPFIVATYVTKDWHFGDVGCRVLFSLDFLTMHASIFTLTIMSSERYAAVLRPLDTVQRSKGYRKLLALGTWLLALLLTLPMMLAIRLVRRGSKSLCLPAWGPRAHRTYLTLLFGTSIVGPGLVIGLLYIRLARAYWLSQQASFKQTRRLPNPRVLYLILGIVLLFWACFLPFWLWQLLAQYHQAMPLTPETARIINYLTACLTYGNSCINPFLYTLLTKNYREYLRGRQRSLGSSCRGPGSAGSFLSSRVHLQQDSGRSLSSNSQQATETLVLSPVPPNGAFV
In short: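 Cloned mouse urotensin (mUR2) receptor membranes from Perkin Elmer Biosignal were immobilized in FlashPlate microplates using a proprietary coating. Each well got 19.5 μl buffer, then 0.5 μl of DMSO, reference ligand, or compound. Adding 5 μl of [125I]-Urotensin II, diluted to 5× final concentration in binding buffer, started binding. Plates were sealed with TopSeal-A and incubated 1 hour at room temperature in the dark. Wells were counted for 30 seconds each on a TopCount after a 60-second delay, and percentage inhibition was calculated.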

[11] = target: T11, Human μ-opioid (MOP) (Homo sapiens, UniProt P35372); experiment: Radioligand binding, human μ-opioid (MOP) membranes, FlashPlate, [3H]-Naloxone; details: compound at 10 μM; for A7 radioligand binding inhibition: human μ-opioid (MOP) membranes
T11 construct: purchased Perkin Elmer Biosignal
In short: as §2

T9 sequence (P41968 whole entry): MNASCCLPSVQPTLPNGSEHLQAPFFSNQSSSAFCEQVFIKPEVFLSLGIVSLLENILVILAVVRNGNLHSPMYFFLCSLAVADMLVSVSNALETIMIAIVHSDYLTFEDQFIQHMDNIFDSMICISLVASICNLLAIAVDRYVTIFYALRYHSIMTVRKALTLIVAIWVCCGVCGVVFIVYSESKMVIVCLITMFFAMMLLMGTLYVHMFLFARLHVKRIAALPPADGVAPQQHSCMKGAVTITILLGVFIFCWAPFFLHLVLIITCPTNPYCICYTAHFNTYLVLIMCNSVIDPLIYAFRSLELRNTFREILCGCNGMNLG
T1 sequence (P41145 whole entry): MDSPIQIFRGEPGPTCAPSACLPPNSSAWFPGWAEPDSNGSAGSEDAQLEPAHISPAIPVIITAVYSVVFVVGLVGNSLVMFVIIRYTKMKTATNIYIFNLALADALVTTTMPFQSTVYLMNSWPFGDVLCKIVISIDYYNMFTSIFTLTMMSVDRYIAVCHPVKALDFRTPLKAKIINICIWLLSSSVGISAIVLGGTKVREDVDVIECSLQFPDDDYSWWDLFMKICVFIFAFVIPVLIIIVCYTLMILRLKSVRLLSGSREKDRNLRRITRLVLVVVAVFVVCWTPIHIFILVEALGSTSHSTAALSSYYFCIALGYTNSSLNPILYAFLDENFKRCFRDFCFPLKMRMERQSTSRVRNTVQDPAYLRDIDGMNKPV
T7 sequence (Q99705 whole entry): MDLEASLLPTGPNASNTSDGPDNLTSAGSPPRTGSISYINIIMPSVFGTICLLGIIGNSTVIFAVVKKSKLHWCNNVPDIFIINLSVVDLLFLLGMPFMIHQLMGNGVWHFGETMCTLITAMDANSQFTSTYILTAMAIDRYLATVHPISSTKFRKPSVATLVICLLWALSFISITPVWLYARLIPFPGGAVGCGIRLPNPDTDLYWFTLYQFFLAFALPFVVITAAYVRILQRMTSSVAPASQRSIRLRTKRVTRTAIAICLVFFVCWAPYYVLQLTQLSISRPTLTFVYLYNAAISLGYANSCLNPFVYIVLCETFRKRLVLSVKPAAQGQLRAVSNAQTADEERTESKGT
T11 sequence (P35372 whole entry): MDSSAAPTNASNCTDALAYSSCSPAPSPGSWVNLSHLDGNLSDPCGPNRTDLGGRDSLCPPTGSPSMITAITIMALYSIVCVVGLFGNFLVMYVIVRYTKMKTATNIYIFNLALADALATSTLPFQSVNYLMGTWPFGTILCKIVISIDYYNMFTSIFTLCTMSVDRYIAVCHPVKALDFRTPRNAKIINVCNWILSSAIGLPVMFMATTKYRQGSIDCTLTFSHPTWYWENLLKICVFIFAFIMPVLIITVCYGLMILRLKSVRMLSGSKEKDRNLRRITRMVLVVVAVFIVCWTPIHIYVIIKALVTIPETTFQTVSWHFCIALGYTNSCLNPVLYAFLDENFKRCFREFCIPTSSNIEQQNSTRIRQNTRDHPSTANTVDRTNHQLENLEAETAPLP
T5 sequence (P41146 whole entry): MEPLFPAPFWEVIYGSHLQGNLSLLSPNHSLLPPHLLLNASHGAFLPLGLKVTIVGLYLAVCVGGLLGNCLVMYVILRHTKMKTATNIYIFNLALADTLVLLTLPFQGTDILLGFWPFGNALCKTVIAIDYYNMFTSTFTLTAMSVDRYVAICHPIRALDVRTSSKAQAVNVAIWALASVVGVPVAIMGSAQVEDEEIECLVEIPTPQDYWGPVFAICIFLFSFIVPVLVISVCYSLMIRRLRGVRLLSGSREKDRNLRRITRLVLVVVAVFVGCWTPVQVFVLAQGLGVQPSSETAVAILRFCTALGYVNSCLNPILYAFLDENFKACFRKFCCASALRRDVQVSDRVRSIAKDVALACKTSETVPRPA
T4 sequence (P41143 whole entry): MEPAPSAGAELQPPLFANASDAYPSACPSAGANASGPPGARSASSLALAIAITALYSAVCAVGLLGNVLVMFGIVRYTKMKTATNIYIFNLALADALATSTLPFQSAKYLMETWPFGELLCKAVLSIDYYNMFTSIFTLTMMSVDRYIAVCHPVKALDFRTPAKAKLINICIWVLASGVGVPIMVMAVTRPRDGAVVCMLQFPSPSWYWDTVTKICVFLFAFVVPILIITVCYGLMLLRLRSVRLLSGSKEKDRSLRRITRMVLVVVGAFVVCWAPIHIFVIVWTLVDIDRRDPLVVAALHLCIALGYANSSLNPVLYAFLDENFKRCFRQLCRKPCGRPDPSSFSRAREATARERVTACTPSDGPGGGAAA
T2 sequence (P33032 whole entry): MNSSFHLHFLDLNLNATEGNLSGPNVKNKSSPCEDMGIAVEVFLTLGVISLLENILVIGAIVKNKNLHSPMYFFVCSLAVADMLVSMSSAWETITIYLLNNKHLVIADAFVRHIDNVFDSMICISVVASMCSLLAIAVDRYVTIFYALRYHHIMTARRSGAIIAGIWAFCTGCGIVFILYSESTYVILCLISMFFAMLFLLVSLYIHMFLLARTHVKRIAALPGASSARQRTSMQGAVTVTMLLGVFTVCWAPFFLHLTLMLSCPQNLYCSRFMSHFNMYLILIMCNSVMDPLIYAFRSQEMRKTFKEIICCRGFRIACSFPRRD
T3 sequence (P25103 whole entry): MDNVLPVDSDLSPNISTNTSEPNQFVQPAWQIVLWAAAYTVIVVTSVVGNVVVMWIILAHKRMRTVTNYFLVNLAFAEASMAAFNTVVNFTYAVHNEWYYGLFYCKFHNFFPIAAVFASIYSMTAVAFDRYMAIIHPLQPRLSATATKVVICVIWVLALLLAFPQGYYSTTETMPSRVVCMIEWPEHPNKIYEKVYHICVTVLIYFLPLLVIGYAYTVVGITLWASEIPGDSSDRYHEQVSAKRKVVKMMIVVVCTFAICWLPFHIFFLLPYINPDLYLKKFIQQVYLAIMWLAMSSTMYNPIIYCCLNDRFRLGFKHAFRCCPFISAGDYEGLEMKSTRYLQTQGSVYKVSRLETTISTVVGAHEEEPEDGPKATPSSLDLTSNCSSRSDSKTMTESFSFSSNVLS
T6 sequence (P32245 whole entry): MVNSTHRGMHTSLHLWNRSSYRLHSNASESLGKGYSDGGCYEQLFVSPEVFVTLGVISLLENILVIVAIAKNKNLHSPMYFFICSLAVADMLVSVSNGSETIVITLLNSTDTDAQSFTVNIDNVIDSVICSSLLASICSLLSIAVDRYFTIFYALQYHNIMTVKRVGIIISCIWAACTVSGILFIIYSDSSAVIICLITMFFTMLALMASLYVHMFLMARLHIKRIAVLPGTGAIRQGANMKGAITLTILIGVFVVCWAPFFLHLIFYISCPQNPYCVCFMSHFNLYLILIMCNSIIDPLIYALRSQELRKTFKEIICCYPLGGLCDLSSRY

## NCCCC(=O)NC1C(OCc2ccc3ccccc3c2)OC(COCc2ccc(Cl)cc2)C(O)C1OCc1ccc(Cl)cc1 (single isomer, unassigned) [compound 459]
[1]; [3H]-Diprenorphine, human KOP membranes
  A2: inhibition of radioligand binding: − (“−” indicates less than 50% inhibition at 10 μM)
[2]; [125I]-NDP-αMSH, human MC5 membranes
  A5: inhibition of radioligand binding: + (“+” indicates greater than 50% inhibition at 10 μM)
[3]; [125I]-Substance P, human NK1 membranes
  A8: inhibition of radioligand binding: + (“+” indicates greater than 50% inhibition at 10 μM)
[4]; [3H]-Bremazocine, human DOP membranes
  A1: inhibition of radioligand binding: − (“−” indicates less than 50% inhibition at 10 μM)
[5]; [125I]-Nociceptin, human ORL1 membranes, 10 µM
  A10: inhibition of radioligand binding: + (“+” indicates greater than 50% inhibition at 10 μM)
[6]; [125I]-NDP-αMSH, human MC4 membranes
  A4: inhibition of radioligand binding: + (“+” indicates greater than 50% inhibition at 10 μM)
[7]; [125I]-S36057, human MCH1 membranes, 10 µM
  A6: inhibition of radioligand binding: + (“+” indicates greater than 50% inhibition at 10 μM)
[8]; [125I]-PYY, human NPY-Y1 membranes
  A9: inhibition of radioligand binding: − (“−” indicates less than 50% inhibition at 10 μM)
[9]; [125I]-NDP-αMSH, human MC3 membranes
  A3: inhibition of radioligand binding: + (“+” indicates greater than 50% inhibition at 10 μM)
[10]; [125I]-Urotensin II, mouse mUR2 membranes
  A11: inhibition of radioligand binding: − (“−” indicates less than 50% inhibition at 10 μM)
[11]; [3H]-Naloxone, human MOP membranes, 10 µM
  A7: inhibition of radioligand binding: − (“−” indicates less than 50% inhibition at 10 μM)

## CSC1OC(COCc2ccccc2)C(O)C(OCc2cccc(N)c2)C1NC(=O)C=Cc1ccccc1 (stereo not shown) [compound 324]
[1]; [3H]-Diprenorphine
  A2: inhibition of radioligand binding, human κ-opioid (KOP): − (“−” indicates less than 50% inhibition at 10 μM)
[2]; [125I]-NDP-αMSH
  A5: inhibition of radioligand binding, human melanocortin (MC5): − (“−” indicates less than 50% inhibition at 10 μM)
[3]; [125I]-Substance P
  A8: inhibition of radioligand binding, human neurokinin (NK1): + (“+” indicates greater than 50% inhibition at 10 μM)
[4]; [3H]-Bremazocine
  A1: inhibition of radioligand binding, human δ-opioid (DOP): − (“−” indicates less than 50% inhibition at 10 μM)
[5]; [125I]-Nociceptin
  A10: inhibition of radioligand binding, human opioid (ORL1): − (“−” indicates less than 50% inhibition at 10 μM)
[6]; [125I]-NDP-αMSH
  A4: inhibition of radioligand binding, human melanocortin (MC4): − (“−” indicates less than 50% inhibition at 10 μM)
[7]; [125I]-S36057
  A6: inhibition of radioligand binding, human melanin-concentrating hormone (MCH1): − (“−” indicates less than 50% inhibition at 10 μM)
[8]; [125I]-PYY
  A9: inhibition of radioligand binding, human neuropeptide Y (NPY-Y1): − (“−” indicates less than 50% inhibition at 10 μM)
[9]; [125I]-NDP-αMSH
  A3: inhibition of radioligand binding, human melanocortin (MC3): − (“−” indicates less than 50% inhibition at 10 μM)
[10]; [125I]-Urotensin II
  A11: inhibition of radioligand binding, mouse urotensin (mUR2): − (“−” indicates less than 50% inhibition at 10 μM)
[11]; [3H]-Naloxone
  A7: inhibition of radioligand binding, human μ-opioid (MOP): − (“−” indicates less than 50% inhibition at 10 μM)

## COC[C@H]1OC(OCc2ccc(Cl)cc2)[C@H](NC(=O)CNC(=N)N)[C@@H](OCc2ccc(Cl)cc2)[C@@H]1O (stereo partly shown) [compound 37]
[1]
  A2 radioligand binding inhibition: − (“−” indicates less than 50% inhibition at 10 μM)
[2]
  A5 radioligand binding inhibition: + (“+” indicates greater than 50% inhibition at 10 μM)
[3]
  A8 radioligand binding inhibition: − (“−” indicates less than 50% inhibition at 10 μM)
[4]
  A1 radioligand binding inhibition: − (“−” indicates less than 50% inhibition at 10 μM)
[5]; human ORL1 membranes
  A10 radioligand binding inhibition: − (“−” indicates less than 50% inhibition at 10 μM)
[6]
  A4 radioligand binding inhibition: + (“+” indicates greater than 50% inhibition at 10 μM)
[7]
  A6 radioligand binding inhibition: + (“+” indicates greater than 50% inhibition at 10 μM)
[8]; human NPY-Y1 membranes
  A9 radioligand binding inhibition: − (“−” indicates less than 50% inhibition at 10 μM)
[9]
  A3 radioligand binding inhibition: + (“+” indicates greater than 50% inhibition at 10 μM)
[10]
  A11 radioligand binding inhibition: − (“−” indicates less than 50% inhibition at 10 μM)
[11]
  A7 radioligand binding inhibition: − (“−” indicates less than 50% inhibition at 10 μM)

## COC[C@H]1OC(OCCc2ccccc2)[C@H](NC(=O)CNC(=N)N)[C@@H](OCc2ccc3ccccc3c2)[C@@H]1O (stereo partly shown) [compound 44]
[1]
  A2 radioligand binding inhibition: − (“−” indicates less than 50% inhibition at 10 μM)
[2]
  A5 radioligand binding inhibition: + (“+” indicates greater than 50% inhibition at 10 μM)
[3]
  A8 radioligand binding inhibition: − (“−” indicates less than 50% inhibition at 10 μM)
[4]
  A1 radioligand binding inhibition: − (“−” indicates less than 50% inhibition at 10 μM)
[5]; human ORL1 membranes
  A10 radioligand binding inhibition: − (“−” indicates less than 50% inhibition at 10 μM)
[6]
  A4 radioligand binding inhibition: + (“+” indicates greater than 50% inhibition at 10 μM)
[7]
  A6 radioligand binding inhibition: − (“−” indicates less than 50% inhibition at 10 μM)
[8]; human NPY-Y1 membranes
  A9 radioligand binding inhibition: − (“−” indicates less than 50% inhibition at 10 μM)
[9]
  A3 radioligand binding inhibition: − (“−” indicates less than 50% inhibition at 10 μM)
[10]
  A11 radioligand binding inhibition: − (“−” indicates less than 50% inhibition at 10 μM)
[11]
  A7 radioligand binding inhibition: − (“−” indicates less than 50% inhibition at 10 μM)

## CO[C@H]1[C@H](O)[C@@H](COCc2ccc(Cl)cc2)OC(OCCc2ccccc2)[C@@H]1NC(=O)CCNC(=N)N (stereo partly shown) [compound 120]
[1]; [3H]-Diprenorphine
  A2 radioligand binding, percentage inhibition: + (“+” indicates greater than 50% inhibition at 10 μM)
[2]; [125I]-NDP-αMSH
  A5 radioligand binding, percentage inhibition: + (“+” indicates greater than 50% inhibition at 10 μM)
[3]; [125I]-Substance P
  A8 radioligand binding, percentage inhibition: + (“+” indicates greater than 50% inhibition at 10 μM)
[4]; [3H]-Bremazocine
  A1 radioligand binding, percentage inhibition: − (“−” indicates less than 50% inhibition at 10 μM)
[5]; [125I]-Nociceptin
  A10 radioligand binding, percentage inhibition: − (“−” indicates less than 50% inhibition at 10 μM)
[6]; [125I]-NDP-αMSH
  A4 radioligand binding, percentage inhibition: + (“+” indicates greater than 50% inhibition at 10 μM)
[7]; [125I]-S36057
  A6 radioligand binding, percentage inhibition: − (“−” indicates less than 50% inhibition at 10 μM)
[8]; [125I]-PYY
  A9 radioligand binding, percentage inhibition: − (“−” indicates less than 50% inhibition at 10 μM)
[9]; [125I]-NDP-αMSH
  A3 radioligand binding, percentage inhibition: − (“−” indicates less than 50% inhibition at 10 μM)
[10]; [125I]-Urotensin II
  A11 radioligand binding, percentage inhibition: − (“−” indicates less than 50% inhibition at 10 μM)
[11]; [3H]-Naloxone
  A7 radioligand binding, percentage inhibition: − (“−” indicates less than 50% inhibition at 10 μM)
